From US4746667A, “Pharmaceutical composition containing 2-(2-benzimidazolyl thiomethyl) pyridine” (priority 1981, dated 1988)

System: gastric acid secretion
Test: Gastric Acid Secretion Inhibiting Effect on Conscious Dogs
Type: in vivo
Conditions: Canis lupus familiaris, oral (stomach tube), free base suspended in 0.5% Methocel, histamine-stimulated conscious Heidenhain pouch dogs, gastric juice collected 3 hours; for inhibition in vivo at 2 µmol/kg: dose 2 μmol/kg; for inhibition in vivo at 8 µmol/kg: dose 8 μmol/kg
Experimental: Gastric Acid Secretion Inhibiting Effect on Conscious Dogs
Chronic gastric fistula dogs (Heidenhain pouch dogs) were used. These dogs have been surgically provided with a gastric cannula in the pouch. Following a 4 weeks' recovery period after surgery, tests were performed once a week on each dog. Food and water were withdrawn 18 hours before each test.
Gastric acid secretion was induced by continuous infusion of histamine at individual doses (100-300 μmol/kg, h), resulting in submaximal secretion of gastric acid. At least 2 hours after onset of stimulation, when the gastric acid secertion had reached a steady level, the test compounds in the form of free base suspended in 0.5% Methocel® (90 HG, 15.000, Dow Chem. corp.), were given orally by stomach tube. The gastric juice was collected by free flow from the gastric cannula in consecutive 30 minutes samples for 3 hours. The samples were titrated to pH 7.0 with 0.1M NaOH using a Radio-meter automatic titrator and the acid output was calculated.
The percent inhibition of acid secretion was calculated by comparing in each dog the acid output in the tests to the acid output in control tests when only the vehicle was given.

Row | SMILES | inhibition in vivo at 2 µmol/kg | inhibition in vivo at 8 µmol/kg
1 | COc1c(C)cnc(CSc2nc3cc(C)ccc3[nH]2)c1C [5-CH3, H, H, CH3, OCH3, CH3] | 60% | –
2 | COc1c(C)cnc(CSc2nc3cc(C(C)=O)c(C)cc3[nH]2)c1C [5-COCH3,6-CH3, H, CH3, OCH3, CH3, 2-[2-(3,5-dimethyl-4-methoxy)pyridylmethylthio]-5-COCH3-6-CH3-benzimidazole] | 35% | –
3 | CC(=O)c1cc2nc(SCc3cc(C)c(C)cn3)[nH]c2cc1C [5-COCH3,6-CH3, H, H, CH3, CH3] | – | 80%
4 | COc1c(C)cnc(CSc2nc3cc(C(C)=O)ccc3[nH]2)c1C [5-COCH3, H, H, CH3, OCH3, CH3] | – | 90%
5 | COC(=O)c1cc2nc(SCc3ncc(C)c(OC)c3C)[nH]c2cc1C [5-COOCH3,6-CH3, H, CH3, OCH3, CH3, 2-[2-(3,5-dimethyl-4-methoxy)pyridylmethylthio]-(5-carbomethoxy-6-methyl)benzimidazole] | 80% | –
6 | COC(=O)c1ccc2[nH]c(SCc3ncc(C)c(OC)c3C)nc2c1 [5-COOCH3, H, H, CH3, OCH3, CH3] | – | 50%
7 | COc1ccc2[nH]c(SCc3ncc(C)c(C)c3C)nc2c1 [5-OCH3, H, H, CH3, CH3, CH3] | 75% | –
8 | COc1ccc2[nH]c(SCc3ncc(C)c(OC)c3C)nc2c1 [5-OCH3, H, H, CH3, OCH3, CH3, 2-[2-(3,5-dimethyl-4-methoxy)pyridylmethylthio]-(5-methoxy)benzimidazole] | 75% | –
